This note sets out measurements from paper PMC8808171, “Nonselective TRPC channel inhibition and suppression of aminoglycoside-induced premature termination codon readthrough by the small molecule AC1903” (The Journal of Biological Chemistry, 2022).

As a reminder, the IC50 is the concentration that gives 50% inhibition. The Hill slope is a measure of the steepness of the concentration-response curve.

For one experiment, the target named is T1, TRPC5–C1 (Homo sapiens, UniProt P48995+Q9UL62).
T1 construct: expressed in transfected cells; host or cells: HEK T-REx (tetracycline-induced)
T1 sequence (Q9UL62+P48995 fused): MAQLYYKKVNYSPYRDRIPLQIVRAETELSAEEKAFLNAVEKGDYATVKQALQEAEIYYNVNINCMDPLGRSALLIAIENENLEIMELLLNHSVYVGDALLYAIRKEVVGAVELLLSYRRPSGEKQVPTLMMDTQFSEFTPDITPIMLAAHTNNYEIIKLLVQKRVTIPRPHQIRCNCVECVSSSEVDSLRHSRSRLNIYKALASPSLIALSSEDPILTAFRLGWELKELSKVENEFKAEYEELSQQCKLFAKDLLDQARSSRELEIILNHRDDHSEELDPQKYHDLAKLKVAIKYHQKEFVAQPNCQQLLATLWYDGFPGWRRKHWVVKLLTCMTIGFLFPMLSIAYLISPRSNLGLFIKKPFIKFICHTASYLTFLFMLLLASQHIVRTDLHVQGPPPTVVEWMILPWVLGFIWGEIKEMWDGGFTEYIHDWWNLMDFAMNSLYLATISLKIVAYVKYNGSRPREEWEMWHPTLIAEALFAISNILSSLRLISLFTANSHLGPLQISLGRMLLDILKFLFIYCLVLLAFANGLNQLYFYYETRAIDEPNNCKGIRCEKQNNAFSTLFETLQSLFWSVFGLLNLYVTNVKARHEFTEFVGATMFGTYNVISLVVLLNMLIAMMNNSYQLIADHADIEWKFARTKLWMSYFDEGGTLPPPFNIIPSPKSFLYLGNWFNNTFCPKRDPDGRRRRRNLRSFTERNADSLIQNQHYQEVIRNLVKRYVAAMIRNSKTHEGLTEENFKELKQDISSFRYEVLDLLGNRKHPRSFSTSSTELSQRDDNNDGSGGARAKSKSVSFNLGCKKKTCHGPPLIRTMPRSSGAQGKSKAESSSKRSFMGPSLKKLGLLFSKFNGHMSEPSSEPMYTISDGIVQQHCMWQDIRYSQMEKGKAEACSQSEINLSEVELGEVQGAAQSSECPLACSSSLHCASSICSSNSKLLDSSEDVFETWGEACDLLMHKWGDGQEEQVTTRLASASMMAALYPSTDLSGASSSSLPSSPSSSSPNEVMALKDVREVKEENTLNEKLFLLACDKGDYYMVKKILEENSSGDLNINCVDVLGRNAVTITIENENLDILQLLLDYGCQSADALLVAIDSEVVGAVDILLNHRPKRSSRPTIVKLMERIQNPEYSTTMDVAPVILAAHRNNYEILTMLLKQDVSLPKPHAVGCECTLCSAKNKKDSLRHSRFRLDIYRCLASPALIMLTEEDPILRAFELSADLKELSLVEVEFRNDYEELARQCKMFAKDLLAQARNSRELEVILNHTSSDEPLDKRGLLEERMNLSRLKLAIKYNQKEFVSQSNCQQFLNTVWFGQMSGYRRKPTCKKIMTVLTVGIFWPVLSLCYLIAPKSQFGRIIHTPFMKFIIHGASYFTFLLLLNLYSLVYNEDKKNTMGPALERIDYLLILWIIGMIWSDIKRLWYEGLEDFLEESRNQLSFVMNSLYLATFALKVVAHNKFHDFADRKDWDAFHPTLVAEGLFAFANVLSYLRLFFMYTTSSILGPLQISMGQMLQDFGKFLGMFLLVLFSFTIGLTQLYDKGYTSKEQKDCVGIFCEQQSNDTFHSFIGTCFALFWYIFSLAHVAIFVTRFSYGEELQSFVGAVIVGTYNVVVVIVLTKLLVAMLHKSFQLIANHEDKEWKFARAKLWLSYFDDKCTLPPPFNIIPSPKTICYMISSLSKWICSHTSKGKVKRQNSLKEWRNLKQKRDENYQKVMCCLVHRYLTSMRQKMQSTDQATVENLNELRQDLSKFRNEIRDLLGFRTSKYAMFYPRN
Briefly: [Ca2+]i recordings (Fura-2), concatemeric TRPC5–C1 in HEK T-REx cells. The class given is cell-based. The settings on record: activator EA (30 nM). Here is the method: Based on the findings described above, we wondered whether AC1903—which is typically used as a TRPC5 inhibitor at concentrations of 30–100 μM in cellular assays ([29], [56])—might have limited selectivity for TRPC5 channels and whether its effect on intracellular G418 levels and PTC readthrough might be the consequence of inhibition of other or multiple targets. All well-characterized TRPC channel inhibitors reported to date modulate multiple TRP(C) channels ([34], [35], [36]). […] Because limited data for the selectivity of AC1903 are available in the public domain, we decided to profile AC1903 against a selection of calcium-permeable cation channels by intracellular calcium ([Ca^2+]i) recordings using well-characterized cell lines and TRP channel activators ([46], [57], [58]), and the Ca^2+ indicator Fura-2. In these assays, cells (HEK 293, HEK T-REx, or CHO) overexpressing the relevant ion channel protein and loaded with Fura-2 AM (a cell-permeable precursor of Fura-2) were preincubated with various concentrations of AC1903 or vehicle (DMSO) for 30 min. Then, changes in ratiometric fluorescence (from background) were recorded upon addition of the respective ion channel activator.
HEK T-REx cells expressing tetracycline-inducible TRPC4, TRPC5, TRPC5–C1,TRPC4–C1, and hPiezo1 have been described previously ([46], [57], [59], [78]). […]

Experiment [1] has as its system TRPC3, TRPC4, TRPC5, TRPC6, TRPC4–C1, TRPC5–C1, endogenous TRPC1:C4 channels. Kind of experiment: Summary of TRPC channel inhibition by AC1903. The following applies: TRPC3, TRPC4, TRPC5, TRPC6, TRPC4–C1, TRPC5–C1, endogenous TRPC1:C4 in A498; read-out: IC50 values over multiple TRPC channels. The class given is cell-based. The source says:
Nonsense mutations, which occur in ∼11% of patients with genetic disorders, introduce premature termination codons (PTCs) that lead to truncated proteins and promote nonsense-mediated mRNA decay. Aminoglycosides such as G418 permit PTC readthrough and so may be used to address this problem. However, their effects are variable between patients, making clinical use of aminoglycosides challenging. In this study, we tested whether TRPC nonselective cation channels contribute to the variable PTC readthrough effect of aminoglycosides by controlling their cellular uptake. […] In addition, our data strengthen the hypothesis that nonselective calcium channels are involved in aminoglycoside uptake.
[Ca^2+]i recordings were carried out using the ratiometric Ca^2+ dye Fura-2. 24 h prior to experiments, cells were plated either onto black, clear bottom poly-D-lysine-coated 96-well plates (HEK cells) or clear 96-well plates (A498 cells, CHO cells) at 50,000 cells per well (HEK cells) or 20,000 cells per well (A498 cells, CHO cells). For tetracycline-inducible HEK T-REx cells, protein expression was induced with tetracycline (TRPC channels: 1 μg ml^−1; hPiezo1: 100 ng ml^−1) at this point. […]

Molecules are shown by their SMILES.

Consider `c1ccc(Cn2c(NCc3ccco3)nc3ccccc32)cc1` [AC1903], for which the values for the 50% inhibitory concentration (IC50) (against TRPC5–C1 (HEK T-REx); in experiment [1]) were 4.7 µM and 1.8 to 18 µM, respectively. Further, the Hill slope at TRPC5–C1 is -1.3.
